Measurements published in patent US20240209019A1, “COMPOUNDS AND METHODS FOR TREATING HYPERKALEMIA” (ARDELYX, INC., priority 2019, published 2024).

Molecular target: HSD2 (Homo sapiens (Human), UniProt P80365)
Assay: HSD2 activity: cortisol conversion in human descending colon organoid monolayer cultures (Example 112)
Details: human descending colon epithelial cultures on transwells; 30 minute pre-incubation, then 40 nM cortisol for four hours; cortisol HTRF assay
Method: Human descending colon epithelial stem cells were cultured as 3D organoids in accordance with Sato et al. Gastroenterology. […] Cultures were differentiated using SBM containing ENRA and 30 nM aldosterone on day 3, and cultures were used for assay on day 6 or 7. Compounds were diluted in DMSO and serial dilutions prepared by titrating in DMSO. Compounds were then diluted into DMEM/F12. Transwell plates containing descending colon cultures were washed twice with DMEM/F12 and compound was added to the apical compartment. Cells were incubated with test compound for 30 minutes at 37° C., 5% CO2 to equilibrate across the cell membrane. A second compound plate was prepared in which the serially diluted compounds in DMSO were diluted into DMEM/F12 containing 40 nM cortisol. Following the 30 minute pre-incubation step, the apical media was aspirated and compounds diluted in DMEM/F12 with 40 nM cortisol were added to the apical side of the transwell. The plate was then incubated for four hours at 37° C., 5% CO2. Cortisol levels were measured using a cortisol HTRF assay kit as described by the manufacturer (Cisbio). Concentration-response curves were then plotted and IC50 (and pIC50) values were determined using least squares non-linear regression.
Inhibition of HSD2 activity as measured by the inhibition of the conversion of cortisone to cortisol.

Sequence of HSD2 (P80365 whole entry): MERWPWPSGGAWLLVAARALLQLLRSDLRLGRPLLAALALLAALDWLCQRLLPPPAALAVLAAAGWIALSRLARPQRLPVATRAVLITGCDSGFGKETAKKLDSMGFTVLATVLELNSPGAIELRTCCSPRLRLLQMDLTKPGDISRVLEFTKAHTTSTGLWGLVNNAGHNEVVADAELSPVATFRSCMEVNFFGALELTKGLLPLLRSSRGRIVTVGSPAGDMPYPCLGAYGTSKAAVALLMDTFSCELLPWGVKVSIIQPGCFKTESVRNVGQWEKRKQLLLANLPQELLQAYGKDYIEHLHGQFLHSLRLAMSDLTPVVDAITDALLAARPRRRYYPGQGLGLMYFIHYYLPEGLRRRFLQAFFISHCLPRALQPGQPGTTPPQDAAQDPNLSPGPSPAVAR

Structure (SMILES)	pIC50
CC(=O)O[C@H]1CC[C@@]2(C)[C@@H](CC[C@]3(C)[C@@H]2C(=O)C=C2[C@@H]4C[C@@](C)(C(=O)O)CC[C@]4(C)CC[C@]23C)[C@]1(C)C(=O)OCc1oc(=O)oc1C [Compound 243-1, (2S,4aS,6aS,6bR,8aR,9S,10S,12aS,12bR,14bR)-10-Acetoxy-2,4a,6a,6b,9,12a-hexamethyl-9-(((5-methyl-2-oxo-1,3-dioxol-4-yl)methoxy)carbonyl)-13-oxo-1,2,3,4,4a,5,6,6a,6b,7,8,8a,9,10,11,12,12a,12b,13,14b-icosahydropicene-2-carboxylic acid]	7.5
Cc1oc(=O)oc1COC(=O)[C@]1(C)[C@@H](OC(=O)CO)CC[C@@]2(C)[C@H]1CC[C@]1(C)[C@@H]2C(=O)C=C2[C@@H]3C[C@@](C)(C(=O)O)CC[C@]3(C)CC[C@]21C [Compound 244-1, (2S,4aS,6aS,6bR,8aR,9S,10S,12aS,12bR,14bR)-10-(2-Hydroxyacetoxy)-2,4a,6a,6b,9,12a-hexamethyl-9-(((5-methyl-2-oxo-1,3-dioxol-4-yl)methoxy)carbonyl)-13-oxo-1,2,3,4,4a,5,6,6a,6b,7,8,8a,9,10,11,12,12a,12b,13,14b-icosahydropicene-2-carboxylic acid]	6.8
COC(=O)N[C@H]1CC[C@@]2(C)[C@@H](CC[C@]3(C)[C@@H]2C(=O)C=C2[C@@H]4C[C@@](C)(C(=O)O)CC[C@]4(C)CC[C@]23C)[C@]1(C)C(=O)OCc1oc(=O)oc1C [Compound 281-3, (2S,4aS,6aS,6bR,8aR,9S,10S,12aS,12bR,14bR)-10-((methoxycarbonyl)amino)-2,4a,6a,6b,9,12a-hexamethyl-9-(((5-methyl-2-oxo-1,3-dioxol-4-yl)methoxy)carbonyl)-13-oxo-1,2,3,4,4a,5,6,6a,6b,7,8,8a,9,10,11,12,12a,12b,13,14b-icosahydropicene-2-carboxylic acid]	6.7
Cc1oc(=O)oc1COC(=O)[C@]1(C)[C@@H](OC(=O)NCCN2CCOCC2)CC[C@@]2(C)[C@H]1CC[C@]1(C)[C@@H]2C(=O)C=C2[C@@H]3C[C@@](C)(C(=O)O)CC[C@]3(C)CC[C@]21C [Compound 286-4, (2S,4aS,6aS,6bR,8aR,9S,10S,12aS,12bR,14bR)-2,4a,6a,6b,9,12a-hexamethyl-9-(((5-methyl-2-oxo-1,3-dioxol-4-yl)methoxy)carbonyl)-10-(((2-morpholinoethyl)carbamoyl)oxy)-13-oxo-1,2,3,4,4a,5,6,6a,6b,7,8,8a,9,10,11,12,12a,12b,13,14b-icosahydropicene-2-carboxylic acid]	6.9
CCc1oc(=O)oc1COC(=O)[C@]1(C)[C@@H](OC(C)=O)CC[C@@]2(C)[C@H]1CC[C@]1(C)[C@@H]2C(=O)C=C2[C@@H]3C[C@@](C)(C(=O)O)CC[C@]3(C)CC[C@]21C [Compound 316-1, (2S,4aS,6aS,6bR,8aR,9S,10S,12aS,12bR,14bR)-10-acetoxy-9-(((5-ethyl-2-oxo-1,3-dioxol-4-yl)methoxy)carbonyl)-2,4a,6a,6b,9,12a-hexamethyl-13-oxo-1,2,3,4,4a,5,6,6a,6b,7,8,8a,9,10,11,12,12a,12b,13,14b-icosahydropicene-2-carboxylic acid]	7.5
CC1(C)[C@@H](C(=O)OCC2COC(=O)O2)CC[C@]2(C)[C@H]3C(=O)C=C4[C@@H]5C[C@@](C)(C(=O)O)CC[C@]5(C)CC[C@@]4(C)[C@]3(C)CC[C@@H]12 (stereo partly drawn) [Compound 700-1, (2S,4aS,6aS,6bR,8aS,10S,12aS,12bR,14bR)-2,4a,6a,6b,9,9,12a-heptamethyl-13-oxo-10-{[(2-oxo-1,3-dioxolan-4-yl)methoxy]carbonyl}-1,2,3,4,4a,5,6,6a,6b,7,8,8a,9,10,11,12,12a,12b,13,14b-icosahydropicene-2-carboxylic acid]	6.1
CSCC(=O)O[C@H]1CC[C@@]2(C)[C@@H](CC[C@]3(C)[C@@H]2C(=O)C=C2[C@@H]4C[C@@](C)(C(=O)O)CC[C@]4(C)CC[C@]23C)[C@]1(C)C(=O)OCc1oc(=O)oc1C(C)C [Compound 701-1, (2S,4aS,6aS,6bR,8aR,9S,10S,12aS,12bR,14bR)-2,4a,6a,6b,9,12a-hexamethyl-10-{[2-(methylsulfanyl)acetyl]oxy}-13-oxo-9-({[2-oxo-5-(propan-2-yl)-2H-1,3-dioxol-4-yl]methoxy}carbonyl)-1,2,3,4,4a,5,6,6a,6b,7,8,8a,9,10,11,12,12a,12b,13,14b-icosahydropicene-2-carboxylic acid]	7
CC(=O)O[C@]1(C)CC[C@@]2(C)[C@@H](CC[C@]3(C)[C@@H]2C(=O)C=C2[C@@H]4C[C@@](C)(C(=O)O)CC[C@]4(C)CC[C@]23C)[C@]1(C)C(=O)OCc1oc(=O)oc1C(C)C [Compound 702-1, (2S,4aS,6aS,6bR,8aR,9S,10R,12aS,12bR,14bR)-10-(acetyloxy)-2,4a,6a,6b,9,10,12a-heptamethyl-13-oxo-9-({[2-oxo-5-(propan-2-yl)-2H-1,3-dioxol-4-yl]methoxy}carbonyl)-1,2,3,4,4a,5,6,6a,6b,7,8,8a,9,10,11,12,12a,12b,13,14b-icosahydropicene-2-carboxylic acid]	6.4
CCc1oc(=O)oc1COC(=O)[C@@]1(C)[C@@H]2CC[C@]3(C)[C@H](C(=O)C=C4[C@@H]5C[C@@](C)(C(=O)O)CC[C@]5(C)CC[C@]43C)[C@@]2(C)CC[C@@]1(C)OC(C)=O [Compound 703-1, (2S,4aS,6aS,6bR,8aR,9S,10R,12aS,12bR,14bR)-10-(acetyloxy)-9-{[(5-ethyl-2-oxo-2H-1,3-dioxol-4-yl)methoxy]carbonyl}-2,4a,6a,6b,9,10,12a-heptamethyl-13-oxo-1,2,3,4,4a,5,6,6a,6b,7,8,8a,9,10,11,12,12a,12b,13,14b-icosahydropicene-2-carboxylic acid]	6.1
CC(=O)O[C@]1(C)CC[C@@]2(C)[C@@H](CC[C@]3(C)[C@@H]2C(=O)C=C2[C@@H]4C[C@@](C)(C(=O)O)CC[C@]4(C)CC[C@]23C)[C@]1(C)C(=O)OCc1oc(=O)oc1C [Compound 704-1, (2S,4aS,6aS,6bR,8aR,9S,10R,12aS,12bR,14bR)-10-(acetyloxy)-2,4a,6a,6b,9,10,12a-heptamethyl-9-{[(5-methyl-2-oxo-2H-1,3-dioxol-4-yl)methoxy]carbonyl}-13-oxo-1,2,3,4,4a,5,6,6a,6b,7,8,8a,9,10,11,12,12a,12b,13,14b-icosahydropicene-2-carboxylic acid]	6.3
CC(=O)O[C@H]1CC[C@@]2(C)[C@@H](CC[C@]3(C)[C@@H]2C(=O)C=C2[C@@H]4C[C@@](C)(C(=O)O)CC[C@]4(C)CC[C@]23C)[C@]1(C)C(=O)OCc1oc(=O)oc1C(C)(C)C [Compound 705-1, (2S,4aS,6aS,6bR,8aR,9S,10S,12aS,12bR,14bR)-10-(acetyloxy)-9-{[(5-tert-butyl-2-oxo-2H-1,3-dioxol-4-yl)methoxy]carbonyl}-2,4a,6a,6b,9,12a-hexamethyl-13-oxo-1,2,3,4,4a,5,6,6a,6b,7,8,8a,9,10,11,12,12a,12b,13,14b-icosahydropicene-2-carboxylic acid]	6.6
CCCc1oc(=O)oc1COC(=O)[C@]1(C)[C@@H](OC(C)=O)CC[C@@]2(C)[C@H]1CC[C@]1(C)[C@@H]2C(=O)C=C2[C@@H]3C[C@@](C)(C(=O)O)CC[C@]3(C)CC[C@]21C [Compound 706-1, (2S,4aS,6aS,6bR,8aR,9S,10S,12aS,12bR,14bR)-10-(acetyloxy)-2,4a,6a,6b,9,12a-hexamethyl-13-oxo-9-{[(2-oxo-5-propyl-2H-1,3-dioxol-4-yl)methoxy]carbonyl}-1,2,3,4,4a,5,6,6a,6b,7,8,8a,9,10,11,12,12a,12b,13,14b-icosahydropicene-2-carboxylic acid]	6.7
CC(=O)O[C@H]1CC[C@@]2(C)[C@@H](CC[C@]3(C)[C@@H]2C(=O)C=C2[C@@H]4C[C@@](C)(C(=O)O)CC[C@]4(C)CC[C@]23C)[C@]1(C)C(=O)OCc1oc(=O)oc1-c1ccccc1 [Compound 707-1, (2S,4aS,6aS,6bR,8aR,9S,10S,12aS,12bR,14bR)-10-(acetyloxy)-2,4a,6a,6b,9,12a-hexamethyl-13-oxo-9-{[(2-oxo-5-phenyl-2H-1,3-dioxol-4-yl)methoxy]carbonyl}-1,2,3,4,4a,5,6,6a,6b,7,8,8a,9,10,11,12,12a,12b,13,14b-icosahydropicene-2-carboxylic acid]	7.1
COCC(=O)O[C@H]1CC[C@@]2(C)[C@@H](CC[C@]3(C)[C@@H]2C(=O)C=C2[C@@H]4C[C@@](C)(C(=O)O)CC[C@]4(C)CC[C@]23C)[C@]1(C)C(=O)OCc1oc(=O)oc1C(C)C [Compound 708-1, (2S,4aS,6aS,6bR,8aR,9S,10S,12aS,12bR,14bR)-10-[(2-methoxyacetyl)oxy]-2,4a,6a,6b,9,12a-hexamethyl-13-oxo-9-({[2-oxo-5-(propan-2-yl)-2H-1,3-dioxol-4-yl]methoxy}carbonyl)-1,2,3,4,4a,5,6,6a,6b,7,8,8a,9,10,11,12,12a,12b,13,14b-icosahydropicene-2-carboxylic acid]	6.3
COCC(=O)O[C@H]1CC[C@@]2(C)[C@@H](CC[C@]3(C)[C@@H]2C(=O)C=C2[C@@H]4C[C@@](C)(C(=O)O)CC[C@]4(C)CC[C@]23C)[C@]1(C)C(=O)OCc1oc(=O)oc1C [Compound 709-1, (2S,4aS,6aS,6bR,8aR,9S,10S,12aS,12bR,14bR)-10-[(2-methoxyacetyl)oxy]-2,4a,6a,6b,9,12a-hexamethyl-9-{[(5-methyl-2-oxo-2H-1,3-dioxol-4-yl)methoxy]carbonyl}-13-oxo-1,2,3,4,4a,5,6,6a,6b,7,8,8a,9,10,11,12,12a,12b,13,14b-icosahydropicene-2-carboxylic acid]	7.2
COCCOCCOCCSCc1oc(=O)oc1COC(=O)CO[C@H]1CC[C@]2(C)[C@H]3C(=O)C=C4[C@@H]5C[C@@](C)(C(=O)O)CC[C@]5(C)CC[C@@]4(C)[C@]3(C)CC[C@H]2C1(C)C [Compound 710-1, (2S,4aS,6aS,6bR,8aR,10S,12aS,12bR,14bR)-2,4a,6a,6b,9,9,12a-heptamethyl-13-oxo-10-(2-oxo-2-{[2-oxo-5-(2,5,8-trioxa-11-thiadodecan-12-yl)-2H-1,3-dioxol-4-yl]methoxy}ethoxy)-1,2,3,4,4a,5,6,6a,6b,7,8,8a,9,10,11,12,12a,12b,13,14b-icosahydropicene-2-carboxylic acid]	6
